Results taken from ChEMBL document CHEMBL5233255, “Natural and nature-inspired stilbenoids as antiviral agents” (Eur J Med Chem, 2020).
pEC50, pIC50: −log10 of the molar value. Converted amounts (≈) assume the structure as drawn.

Experiments:
[1] = Selectivity index, ratio of CC50 for cytotoxicity against African green monkey Vero cells to IC50 for antiviral activity against HSV-2 333 infected in African green monkey Vero cells; format: toxicity, cell-based; settings: read-out: Ratio CC50/IC50
Human alphaherpesvirus 2 [2] = assay: Antiviral activity against HSV-2 333 infected in African green monkey Vero cells incubated for 3 days by plaque reduction assay; format: functional, organism-based; settings: Human alphaherpesvirus 2, 333, Vero, 72 h
[3] = Selectivity index, ratio of CC50 for cytotoxicity against African green monkey Vero cells to IC50 for antiviral activity against HSV-1 15577 infected in African green monkey Vero cells; format: toxicity, cell-based; settings: read-out: Ratio CC50/IC50
Human alphaherpesvirus 1 [4] = assay: Antiviral activity against HSV-1 clinical isolate infected in African green monkey Vero cells incubated for 3 days by plaque reduction assay; format: functional, organism-based; settings: Human alphaherpesvirus 1, Vero, 72 h
Human alphaherpesvirus 1 [5] = assay: Antiviral activity against HSV-1 15577 infected in African green monkey Vero cells incubated for 3 days by plaque reduction assay; format: functional, organism-based; settings: Human alphaherpesvirus 1, 15577, Vero, 72 h
[6] = Selectivity index, ratio of CC50 for cytotoxicity against African green monkey Vero cells to IC50 for antiviral activity against HSV-1 clinical isolate infected in African green monkey Vero cells; format: toxicity, cell-based; settings: read-out: Ratio CC50/IC50
Influenza A virus [7] = assay: Antiviral activity against influenza A virus A/Guangdong/243/72 ([…]) infected in MDCK cells assessed as inhibition of virus-induced cytopathic effect; format: functional, organism-based
[8] = Selectivity index, ratio of CC50 for cytotoxicity against MDCK cells to IC50 for influenza A virus A/Guangdong/243/72 ([…]) infected in MDCK cells; format: toxicity, cell-based; settings: dog, read-out: Ratio CC50/IC50
[9] = Inhibition of influenza B virus B/Jiangsu/10/2003 neuraminidase
Influenza A virus [10] = assay: Antiviral activity against influenza A virus A/PR/8/34 (H1N1) infected in MDCK cells preincubated 2 hrs followed by viral infection and measured after 24 hrs by MTT assay; format: functional, organism-based
[11] = test system: Human immunodeficiency virus 1; assay: Antiviral activity against HIV-1 GB8 infected in human JM1 cells; format: functional, organism-based; settings: Human immunodeficiency virus 1, GB8, JM1
Human alphaherpesvirus 2 [12] = assay: Antiviral activity against HSV-2 VR-734 infected in African green monkey Vero cells assessed as inhibition of viral replication measured after 72 hrs by MTT assay; format: functional, organism-based; settings: Human alphaherpesvirus 2, VR-734, Vero
Human alphaherpesvirus 2 [13] = assay: Antiviral activity against HSV-2 VR-734 infected in human NCI-H1299 cells; format: functional, organism-based; settings: Human alphaherpesvirus 2, VR-734, NCI-H1299
Human alphaherpesvirus 2 [14] = assay: Antiviral activity against HSV-2 VR-734 infected in human HeLa cells; format: functional, organism-based; settings: Human alphaherpesvirus 2, VR-734, HeLa
Enterovirus A71 = assay: Antiviral activity against human EV71 infected in African green monkey Vero cells assessed as reduction in cytopathic effect by SRB assay; format: functional, organism-based; settings: Enterovirus A
Coxsackievirus B3 = assay: Antiviral activity against CVB3 infected in African green monkey Vero cells assessed as reduction in cytopathic effect by SRB assay; format: functional, organism-based; settings: Enterovirus B
Human alphaherpesvirus 1 [15] = assay: Antiviral activity against HSV-1 KOS infected in African green monkey Vero cells incubated for 2 days by plaque reduction assay; format: functional, organism-based; settings: Human alphaherpesvirus 1, KOS, 48 h
Human alphaherpesvirus 2 [16] = assay: Antiviral activity against HSV-2 Baylor 186 infected in African green monkey Vero cells incubated for 2 days by plaque reduction assay; format: functional, organism-based; settings: Human alphaherpesvirus 2, Baylor 186, Vero, 48 h
Human alphaherpesvirus 1 [17] = assay: Antiviral activity against HSV-1 7401H infected in African green monkey Vero cells incubated for 2 days by plaque reduction assay; format: functional, organism-based; settings: Human alphaherpesvirus 1, 7401H
[18] = Cytotoxicity against HEK293T cells; format: toxicity, cell-based, HEK-293T; settings: human, read-out: TC50 (the source's name)
[19] = test system: Human immunodeficiency virus 1; assay: Antiviral activity against HIV-1 infected in HEK293T cells; format: functional, organism-based; settings: Human immunodeficiency virus 1, HEK-293T
[20] = Selectivity index, ratio of TC50 for cytotoxicity against HEK293T cells to EC50 for antiviral activity against HIV-1 infected in HEK293T cells; format: toxicity, cell-based; settings: human
[21] = Therapeutic index, ratio of CC50 for cytotoxicity against human C8166 cells to EC50 for antiviral activity against HIV-1 infected in C8166 cells; format: toxicity, cell-based; settings: read-out: Ratio CC50/EC50
rhinovirus A1B = assay: Antiviral activity against HRV1B infected in human HeLa cells assessed as reduction in cytopathic effect by SRB assay; format: functional, organism-based; settings: Rhinovirus A
Influenza A virus [22] = assay: Antiviral activity against influenza A virus A/PR/8/34 (H1N1) infected in human A549 cells assessed as inhibition of RANTES production incubated for 48 hrs by ELISA; format: functional, organism-based; settings: A549, 48 h
[23] = Cytotoxicity against human A549 cells assessed as reduction in cell viability by Alamar blue assay; format: toxicity, cell-based
Vero C1008 = assay: Cytotoxicity against African green monkey Vero E6 cells infected with Middle East respiratory syndrome coronavirus assessed as reduction in cell viability at 250 uM by LDH assay relative to control; format: toxicity, cell-based; settings: chlorocebus sabaeus, vero c1008, 250 µM
[24] = test system: Human immunodeficiency virus 1; assay: Antiviral activity against HIV-1 infected in human C8166 cells assessed as inhibition of viral replication; format: functional, organism-based; settings: Human immunodeficiency virus 1, C8166
[25] = Cytotoxicity against human C8166 cells assessed as inhibition of cell growth by MTT assay; format: toxicity, cell-based

With CC1=C[C@H](c2c(O)cc(/C=C/c3ccc(O)cc3O)cc2O)[C@@H](C(=O)c2ccc(O)cc2O)[C@H](c2ccc(O)cc2O)C1 the selectivity ratio [1] was 32, the IC50 (Human alphaherpesvirus 2 [2]) was 2.5 µg/mL (≈ 4.29 µM) and the selectivity ratio [3] was 37. For the same compound, the IC50 (Human alphaherpesvirus 1 [4]) was 1.5 µg/mL (≈ 2.57 µM), the IC50 (Human alphaherpesvirus 1 [5]) was 2.2 µg/mL (≈ 3.78 µM) and the selectivity ratio [6] was 55.
Compound Oc1ccc(/C=C/c2cc(O)c3c(c2)O[C@H](c2ccc(O)cc2O)[C@H]3c2cc(O)cc(O)c2)cc1 has an IC50 (Influenza A virus [7]) of 0.67 µg/mL (≈ 1.42 µM), a selectivity ratio [8] of 57.4 and an IC50 [9] of 26.3 µg/mL (≈ 55.9 µM). It also gave an IC50 (Influenza A virus [10]) of 0.67 µg/mL (≈ 1.42 µM).
For O=S(=O)(O)c1cc(N=C=S)ccc1CCc1ccc(N=C=S)cc1S(=O)(=O)O, the pIC50 [11] was 4.40.
In the case of Oc1ccc([C@H]2c3c(O)cc(O)cc3[C@@H]3c4c(cc(O)cc4[C@H]4[C@@H](c5ccc(O)cc5)c5c(O)cc(O)cc5[C@H]5c6c(cc(O)cc6[C@H]24)O[C@@H]5c2ccc(O)cc2)O[C@H]3c2ccc(O)cc2)cc1, the pIC50 (Human alphaherpesvirus 2 [12]) was 5.49, the pIC50 (Human alphaherpesvirus 2 [13]) was 5.49 and the pIC50 (Human alphaherpesvirus 2 [14]) was 5.49.
Oc1ccc(/C=C\c2cc(O)cc(O)c2)cc1 [CIS-RESVERATROL] showed a pIC50 (Enterovirus A71) of 4.42 and a pIC50 (Coxsackievirus B3) of 4.91.
Compound Oc1cc(O)cc(/C=C/c2ccc(O)cc2O)c1 [OXYRESVERATROL] has an IC50 (Human alphaherpesvirus 1 [15]) of 24 µg/mL (≈ 98.3 µM), an IC50 (Human alphaherpesvirus 2 [16]) of 18.7 µg/mL (≈ 76.6 µM) and an IC50 (Human alphaherpesvirus 1 [17]) of 19.8 µg/mL (≈ 81.1 µM).
In the case of Oc1cc(O)cc(/C=C/c2ccc(O)c(O)c2)c1 [PICEATANNOL], the CC50 [18] was over 400 µM, the pEC50 [19] was 4.67 and the selectivity ratio [20] was over 18.7.
With Oc1ccc(/C=C/c2cc(O)cc(O)c2)cc1 [RESVERATROL] the selectivity ratio [21] was 8.14, the pIC50 (rhinovirus A1B) was 4.53 and the CC50 [18] was over 300 µM. It also gave an IC50 (Influenza A virus [7]) of over 22.2 µg/mL, a pEC50 [19] of under 4.12 and a pEC50 (Influenza A virus [22]) of 4.55. For the same compound, the CC50 [23] was 52.6 µM, the Activity (Vero C1008) was 25% and the EC50 [24] was 4.37 µg/mL (≈ 19.1 µM). It also gave a CC50 [25] of 35.6 µg/mL (≈ 156 µM).
